Assay results: patent US5519028A, “Antiviral preparations” (priority 1992, dated 1996)
Entries after “also recorded” stand apart in the source; their conditions may differ. Like-named read-outs stand apart in the source and are kept apart here.

What was measured:
[1] = tested on: human PBMC at rest; experiment: Cytotoxicity (viability) in resting PBMC; type: cell-based
Method: (§1) To evaluate the cytotoxicity of flavopereirine in resting PBMC and in blast cells, prewashed fresh and blastic PBMC taken from five randomly-selected,healthy, HIV-negative donors were treated in triplicate with 30 or 60 μg flavopereirine per ml of alcoholic solution for two hours, After washing twice, the cells were placed in culture in cellular culture medium until day 15. The viability of the cells of each group was examined by exclusion coloring with trypan blue and by quantimetric analysis. Cultures of HIV-negative PBMC without flavopereirine (compound H) were used as controls.

[2] = Cytotoxicity (viability) in resting PBMC; type: cell-based, human; details: human, pbmc, read-out: Viability of PBMC after exposure; for viability at 72 h: d3; for viability at 168 h: d7; for viability at 264 h: d11; for viability at 312 h: d13; for viability at 360 h: d15
Method: as §1

[3] = Sub-chronic administration toxicity in rats; type: in vivo, male and female Sprague-Dawley rats (OPA); details: 530 and 2120 mg/kg/day
Excerpt: No lesions of the liver, kidneys, duodenum, myocardia, spleen, thyroid and parathyroid glands, testicles or ovaries were visible by microscope.

[4] = tested on: HIV-1
[5] = tested on: HIV-1 BRE1 (HIV-1Asym.); experiment: HIV P24 production, target PBMC pretreated, isolate BRE1; type: cell-based; details: for Post-infection production of HIV P24: PBMC + 30 μg/ml 2 hours
Method: (§2) To test the efficacy of flavopereirine on the infectious capability of HIV-1, two experiments were conducted. […] After 2 hours of incubation, the cells were rinsed twice and cultivated in 1 ml of RPMI 1640 containing 20 IU of IL-2 per ml (Boehringer […], Germany), 2 μg of Polybrene (hexadimethrine bromide) per ml (Sigma, St. Louis, Mo., USA) and 10^-7 IU of goat antiserum acting against human alpha interferon (Janssen, Beerse, Belgium) per ml. Half the culture was changed after 72 hours, and thereafter every 48 hours until the 30th day. […] The surface material of the culture was tested by an immuno-enzymatic (ELISA) assay for the production of antigen P24 (Abbott, Chicago, Ill., USA) and the optical density (OD) of the resulting color was converted into P24 concentration from the slope of a standard nomogram, as described by W. Lu and J. -M. Andrieu, Journal of Virology, 66(1): 334-340 (1992).

[6] = tested on: HIV-1; experiment: microbe, parasite or virus in culture; details: Human immunodeficiency virus 1, PBMC, read-out: concentration totally inhibiting replication of HIV-1
[7] = tested on: HIV-1 TIG2 (HIV-1AIDS); experiment: HIV P24 production in PBMC, viral inoculum pretreated, isolate TIG2; type: cell-based; details: virus pretreated with 30 or 60 μg/ml
Method: as §2

[8] = tested on: influenza virus; details: cited from earlier work
[9] = tested on: HIV; type: cell-based
[10] = tested on: interleukin-6; experiment: IL-6 production by monocytes of HIV-positive donors; type: cell-based, human
Method: The effects of flavopereirine on the production of primary (IL-1β and TNF-α) and secondary (IL-6) cytokines by monocytes was also tested. The adhesive monocytes used were taken from the blood of two types of donors:
HIV-positive donors from medical consultations. These individuals were in the early stages of HIV infection and, at the moment of taking the blood, were not undergoing any treatment. The risk factors involved were intravenous drug abuse for six of the donors, sexual transmission for three and blood transfusion (in Zaire) for one patient. No correlation was found between the risk factors and the results of the experiments.
The response of the monocytes taken from the various HIV-positive donors was tested in terms of spontaneous response. The quantities of cells received were low (the donors were not affected by cytapheresy), and the experiments were therefore limited by the number of cells available.
Interleukin-4 was used at the same time as flavopereirine H, since it has been shown prior to these experiments that this cytokine blocks the spontaneous production of interleukin-6 in certain HIV-positive patients.
In five cases, […] was used for comparison, since this, too, blocks the production of IL-6 in normal monocytes stimulated by LPS.

[11] = Cytotoxicity (viability) in blastic PBMC; type: cell-based, human; details: human, pha-stimulated pbmc, blastic, read-out: Viability of PBMC after exposure; for viability at 72 h: d3; for viability at 168 h: d7; for viability at 264 h: d11; for viability at 312 h: d13; for viability at 360 h: d15
Method: as §1

[12] = tested on: PBMC stimulated by PHA (blastic); experiment: Cytotoxicity (viability) in blastic PBMC; type: cell-based, human; details: 30 or 60 μg/ml
Method: as §1

[13] = tested on: H-9 cells; experiment: Multiplication of non-infected H-9 cells; type: cell-based; details: 30 and 60 μg/ml
[14] = Penetration of the blood-brain barrier (encephalic content); type: in vivo, male CDI mice; details: 10 mg orally
[15] = tested on: MT4 cells; experiment: Cellular toxicity in MT4 cells; type: cell-based; details: d3, duplicate

CCc1ccc2c3[nH]c4ccccc4c3cc[n+]2c1 [flavopereirine]
significant reduction of viability of resting PBMC ([1]; 30 μg/ml): this was not the case
viability of resting PBMC ([1]; 60 μg/ml, p<0.05): reduced significantly
viability at 72 h ([2]; 30 μg/ml 2 hrs): 95 ± 4%
viability at 168 h ([2]; 30 μg/ml 2 hrs): 93 ± 2%
viability at 264 h ([2]; 30 μg/ml 2 hrs): 88 ± 7%
viability at 312 h ([2]; 30 μg/ml 2 hrs): 82 ± 10%
viability at 360 h ([2]; 30 μg/ml 2 hrs): 81 ± 11%
viability at 72 h ([2]; 60 μg/ml 2 hrs): 56 ± 6%
viability at 168 h ([2]; 60 μg/ml 2 hrs): 23 ± 4%
viability at 264 h ([2]; 60 μg/ml 2 hrs): 17 ± 4%
viability at 312 h ([2]; 60 μg/ml 2 hrs): 12 ± 5%
viability at 360 h ([2]; 60 μg/ml 2 hrs): 25 ± 8%
alteration in globular blood count [3]: Neither was any alteration in the globular blood count noted
alterations in body weight or feeding [3]: no alterations were noted in either body weight or feeding
hepatic and renal functions [3]: remained normal
lesions of liver, kidneys, duodenum, myocardia, spleen, thyroid, parathyroid, testicles, ovaries ([3]; microscope): No lesions
Production of P24 in HIV ([4]; 50% AB serum, 10 μg/ml 2 hrs, d4): 384 ± 83 pg/mL
Production of P24 in HIV ([4]; 50% AB serum, 10 μg/ml 2 hrs, d10): > 1500 pg/mL
Production of P24 in HIV ([4]; 50% AB serum, 30 μg/ml 2 hrs, d4): 275 ± 98 pg/mL
Production of P24 in HIV ([4]; 50% AB serum, 30 μg/ml 2 hrs, d10): > 1500 pg/mL
efficacy on inhibition of wild HIV-1 in human serum ([4]; 50% human serum): remained unchanged
influence of constituents of human serum ([4]; HIV-1 inhibition at non-cytotoxic concentrations): did not appear to be influenced by the constituents of the human serum
Production of P24 in HIV ([4]; no serum, 10 μg/ml 2 hrs, d4): 388 ± 124 pg/mL
Production of P24 in HIV ([4]; no serum, 10 μg/ml 2 hrs, d10): > 1500 pg/mL
Production of P24 in HIV ([4]; no serum, 30 μg/ml 2 hrs, d4): 173 ± 102 pg/mL
Production of P24 in HIV ([4]; no serum, 30 μg/ml 2 hrs, d10): > 1500 pg/mL
Post-infection production of HIV P24 ([5]; d3): 113 ± 7 pg/mL
Post-infection production of HIV P24 ([5]; d5): > 1500 pg/mL
inhibition of productive viral infections ([5]; target PBMC pretreated with 60 μg/ml only): complete inhibition of productive viral infections
IC100 [6]: 60 to 100 µg/mL
infection of target PBMC [7]: completely prevented the infection of target PBMC
activity against the influenza virus ([8]; EP-A-0 059 817): active against the influenza virus
action against influenza (RNA virus) ([8]; in vivo): appears to act in vivo against influenza
infectious units detectable [9]: ≤ 3000
inhibition of infection [9]: exceeds 99%
reduction in quantity of infected cells ([9]; h-9 cells): around 40%
effect on spontaneous production of IL-6 ([10]; alone, dosage effect, never total, p<0.05, listed as Product H): inhibitory effect with a very clear dosage effect; also recorded: inhibited the spontaneous production of IL-6 shown in some HIV-positive patients
effect on spontaneous production of IL-6 with interleukin-4 ([10]; in presence of interleukin-4, listed as product H): an amplification effect was almost always obtained
concentration for total disappearance of IL-6 production ([10]; with interleukin-4, almost always (except case #4), p<0.05): 3 µg/mL
concentration for total disappearance of IL-6 production (often) ([10]; with interleukin-4, often, p<0.05): 1 µg/mL
viability at 72 h ([11]; 30 μg/ml 2 hrs): 88 ± 3%
viability at 168 h ([11]; 30 μg/ml 2 hrs): 35 ± 7%
viability at 264 h ([11]; 30 μg/ml 2 hrs): 71 ± 3%
viability at 312 h ([11]; 30 μg/ml 2 hrs): 76 ± 9%
viability at 360 h ([11]; 30 μg/ml 2 hrs): 69 ± 8%
viability at 72 h ([11]; 60 μg/ml 2 hrs): 79 ± 4%
viability at 168 h ([11]; 60 μg/ml 2 hrs): 74 ± 5%
viability at 264 h ([11]; 60 μg/ml 2 hrs): 70 ± 4%
viability at 312 h ([11]; 60 μg/ml 2 hrs): 71 ± 8%
viability at 360 h ([11]; 60 μg/ml 2 hrs): 63 ± 7%
viability of blastic cells [12]: appeared to be independent of exposure to compound H
multiplication of non-infected cells [13]: does not affect the multiplication of non-infected cells
encephalic flavopereirine concentration ([14]; 20 g mice, brains 0.5 g): 14 µg/g
encephalic flavopereirine content ([14]; mice): approximately 7 μg
penetration of the blood-brain barrier ([14]; mice): observed to penetrate the blood-brain barrier
cellular toxicity ([15]; 100 μg/ml, Table I): cellular toxicity
cellular toxicity ([15]; 100 μg/ml, Table I, listed as H): Tox
cellular toxicity ([15]; 100 μg/ml, Table II): Tox
cellular toxicity ([15]; 400 μg/ml, Table I): cellular toxicity
cellular toxicity ([15]; 400 μg/ml, Table I, listed as H): Tox
